Laboratory results from US10865191B2, “Heterocyclic compounds useful as modulators of TNF alpha” (BRISTOL-MYERS SQUIBB COMPANY, priority 2015, dated 2020).

These molecules were tested against TNFα (Homo sapiens, UniProt P01375) (assay: TNF induced HEK-Blue assay (NF-kB-driven secreted alkaline phosphatase reporter)). Conditions: TNFα 0.5 ng/mL, HEK-Blue-CD40L cells, 18 h; read-out: TNF induced HEK-Blue assay IC50 value.
Chain of TNFα (P01375 77-233 limits assumed): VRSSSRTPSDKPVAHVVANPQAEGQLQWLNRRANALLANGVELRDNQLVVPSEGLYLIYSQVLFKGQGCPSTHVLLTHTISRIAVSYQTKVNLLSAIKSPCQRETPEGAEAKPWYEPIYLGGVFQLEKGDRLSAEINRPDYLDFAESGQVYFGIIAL
Assay type: cell-based
Protocol: TNF or CD40L-Induced HEK-Blue Assay
Test compounds serially diluted in DMSO were plated in an assay plate (LABCYTE, Cat. # LP-0200) at final concentrations ranging from 0.004 μM to 25 μM. TNFα (final concentration 0.5 ng/mL) or CD40L (final concentration 30 ng/mL) in assay buffer [DMEM, 4.5 g/l glucose (Gibco, Cat. 21063-029), 10% FBS (Sigma, F4135), 1% Penicillin-Streptomycin (Gibco, Cat. 15140-122), 1% Anti-Anti (Gibco, Cat. 15240-112) and 2 mM L-glutamine (Gibco, Cat. 25030-081)] was then added to the assay plate. After a 30 minute pre-incubation at 37° C. and 5% CO2, HEK-Blue™-CD40L cells (INVIVOGEN, Cat. Code hkb-cd40) containing a NF-kB-driven secreted alkaline phosphatase reporter gene were seeded into the assay plate at a density of 20,000 cells per well. This plate was then incubated for 18 h at 37° C. and 5% CO2. Secreted alkaline phosphatase expression was measured using QUANTI-Blue™ (INVIVOGEN, Cat. Code rep-qb1) according to manufacturer's specifications and the assay plate was read on a PerkinElmer Envision at 620 nm.
Inhibition data for the test compound over a range of concentrations was plotted as percentage inhibition of the test compound (100%=maximum inhibition). IC50 values were determined after correcting for background [(sample read-mean of low control)/(mean of high control-mean of low control)] where by the low control is DMSO without stimulation and high control is DMSO with stimulation. The IC50 is defined as the concentration of test compound which produces 50% inhibition and was quantified using the 4 parameter logistic equation to fit the data.
`C[C@@H](Nc1c(Cl)cnc2ccc(-c3cnc(C(C)(C)O)nc3)cc12)c1cc(-c2cncs2)ccc1F` [Example 347, (R)-2-(5-(3-chloro-4-((1-(2-fluoro-5-(thiazol-5-yl)phenyl)ethyl)amino)quinolin-6-yl)pyrimidin-2-yl)propan-2-ol] showed an IC50 of under 1000 nM.
Work on `Cc1ccc(C)c(Nc2c(Cl)c(N)nc3ccc(-c4cnc(NC(CO)CO)nc4)cc23)c1` [Example 71, 2-((5-(2-amino-3-chloro-4-((2,5-dimethylphenyl)amino)quinolin-6-yl)pyrimidin-2-yl)amino)propane-1,3-diol] yielded an IC50 of under 1000 nM.
Molecule `Cc1nc2cc(F)c(-c3cnc(C(C)(C)O)nc3)nc2c(N[C@H](C)c2ccccc2)c1Cl` [Example 213, (R)-2-(5-(7-chloro-3-fluoro-6-methyl-8-((1-phenylethyl)amino)-1,5-naphthyridin-2-yl)pyrimidin-2-yl)propan-2-ol] has an IC50 of under 1000 nM.
Molecule `CNc1ncc(-c2cc(Cl)c3ncc(Cl)c(NC(C)c4ccccc4F)c3c2)cn1` (racemic) [Example 19, 3,8-dichloro-N-(1-(2-fluorophenyl)ethyl)-6-(2-(methylamino)pyrimidin-5-yl)quinolin-4-amine] has an IC50 of 10000 to 25000 nM.
Molecule `CCC(Nc1c(Cl)cnc2ccc(-c3cnc(C(C)(C)O)nc3)cc12)c1nc(CO)ccc1F` (centres unmarked) [Example 130, 2-(5-(3-chloro-4-((1-(3-fluoro-6-(hydroxymethyl)pyridin-2-yl)propyl)amino)quinolin-6-yl)pyrimidin-2-yl)propan-2-ol] has an IC50 of under 1000 nM.
For `Cc1nc2ccc(-c3cnc(C(C)(C)O)nc3)cc2c(-c2ccccc2-c2ccccc2)c1Cl` [Example 353, 2-(5-(4-([1,1′-biphenyl]-2-yl)-3-chloro-2-methylquinolin-6-yl)pyrimidin-2-yl)propan-2-ol], the IC50 was 1000 to 10000 nM.
In the case of `C[C@@H](Nc1c(Cl)cnc2cc(F)c(-c3cnc(C(C)(C)O)nc3)nc12)c1cccc(C(N)=O)c1` [Example 581, (R)-3-(1-((3-chloro-7-fluoro-6-(2-(2-hydroxypropan-2-yl)pyrimidin-5-yl)-1,5-naphthyridin-4-yl)amino)ethyl)benzamide], the IC50 is reported as 10000 to 25000 nM.
`C[C@@H](Nc1c(Cl)cnc2ccccc12)c1cc(-c2ccc(N)nc2)ccc1F` [Example 478, (R)—N-(1-(5-(6-aminopyridin-3-yl)-2-fluorophenyl)ethyl)-3-chloroquinolin-4-amine] was tested, and the IC50 was under 1000 nM.
Molecule `C[C@@H](Nc1c(Cl)cnc2ccc(-c3ccc(C4(NC(N)=O)CCC4)cc3)cc12)c1ccccc1F` [Example 483, (R)-1-(1-(4-(3-chloro-4-((1-(2-fluorophenyl)ethyl)amino)quinolin-6-yl)phenyl)cyclobutyl)urea] has an IC50 of 1000 to 10000 nM.
`C[C@@H](Nc1c(Cl)cnc2ccc(-c3ccc(C(=O)NCCCCN)nc3)cc12)c1ccccc1F` [Example 101, (R)—N-(4-aminobutyl)-5-(3-chloro-4-((1-(2-fluorophenyl)ethyl)amino)quinolin-6-yl)picolinamide] gave an IC50 of 10000 to 25000 nM.
For `C[C@@H](Nc1c(Cl)cnc2ccc(-c3cnc(C(C)(C)O)nc3)cc12)c1cc(O)ccc1F` [Example 405, (R)-3-(1-((3-chloro-6-(2-(2-hydroxypropan-2-yl)pyrimidin-5-yl)quinolin-4-yl)amino)ethyl)-4-fluorophenol], the IC50 was under 1000 nM.
In the case of `C[C@@H](Nc1c(Cl)cnc2ccccc12)c1ccccc1C(F)(F)F` [Example 463, 3-chloro-N-(1-(2-(trifluoromethyl)phenyl)ethyl)quinolin-4-amine], the IC50 is reported as 10000 to 25000 nM.
With `CC(C)(O)c1ncc(-c2nc3c(N[C@@H](c4cc(C#N)ccc4F)C(F)F)c(Cl)cnc3cc2F)cn1` [Example 498, (S)-3-(1-((3-chloro-7-fluoro-6-(2-(2-hydroxypropan-2-yl)pyrimidin-5-yl)-1,5-naphthyridin-4-yl)amino)-2,2-difluoroethyl)-4-fluorobenzonitrile] the IC50 was under 1000 nM.
Work on `Cc1cncc(-c2ccc(F)c([C@@H](C)Nc3c(Cl)cnc4ccccc34)c2)c1` [Example 507, (R)-3-chloro-N-(1-(2-fluoro-5-(5-methylpyridin-3-yl)phenyl)ethyl)quinolin-4-amine] yielded an IC50 of under 1000 nM.
Work on `Cc1nc2ccc(-c3cnc(C(C)(C)O)nc3)cc2c(N[C@H](C)c2cc(N3CCNC3=O)ccc2F)c1Cl` [Example 373, (R)-1-(3-(1-((3-chloro-6-(2-(2-hydroxypropan-2-yl)pyrimidin-5-yl)-2-methylquinolin-4-yl)amino)ethyl)-4-fluorophenyl)imidazolidin-2-one] yielded an IC50 of under 1000 nM.
In the case of `Cc1nc2cc(F)c(-c3cnc(N4CCNC(=O)C4)nc3)cc2c(N[C@H](C)c2cc(C(N)=O)ccc2F)c1Cl` [Example 448, (R)-3-(1-((3-chloro-7-fluoro-2-methyl-6-(2-(3-oxopiperazin-1-yl)pyrimidin-5-yl)quinolin-4-yl)amino)ethyl)-4-fluorobenzamide], the IC50 is reported as under 1000 nM.
Molecule `Cc1ncc(-c2ccc(F)c([C@@H](C)Nc3c(Cl)c(C)nc4ccccc34)c2)cn1` [Example 534, (R)-3-chloro-N-(1-(2-fluoro-5-(2-methylpyrimidin-5-yl)phenyl)ethyl)-2-methylquinolin-4-amine] has an IC50 of under 1000 nM.
In the case of `C[C@@H](Nc1c(Cl)cnc2ccc(-c3cnc(C(C)(C)O)nc3)cc12)c1cccc(-n2cccn2)c1` [Example 368, (R)-2-(5-(4-((1-(3-(1H-pyrazol-1-yl)phenyl)ethyl)amino)-3-chloroquinolin-6-yl)pyrimidin-2-yl)propan-2-ol], the IC50 is reported as 10000 to 25000 nM.
In the case of `CCN(Cc1c(Cl)cnc2ccc(-c3cnc(C(C)(C)O)nc3)cc12)c1ccccc1` [Example 66, 2-(5-(3-chloro-4-((ethyl(phenyl)amino)methyl)quinolin-6-yl)pyrimidin-2-yl)propan-2-ol], the IC50 is reported as 1000 to 10000 nM.
In the case of `CC(Nc1c(Cl)cnc2ccc(-c3ccc(C(C)(C)O)cc3)cc12)c1ncccn1` (racemic) [Example 177, 2-(4-(3-chloro-4-((1-(pyrimidin-2-yl)ethyl)amino)quinolin-6-yl)phenyl)propan-2-ol], the IC50 is reported as under 1000 nM.
Molecule `C[C@@H](Nc1c(Cl)cnc2ccc(-c3cnc(N4CCN([C@@H](CN)C(=O)O)CC4)nc3)cc12)c1ccccc1F` [Example 94, (S)-3-amino-2-(4-(5-(3-chloro-4-(((R)-1-(2-fluorophenyl)ethyl)amino)quinolin-6-yl)pyrimidin-2-yl)piperazin-1-yl)propanoic acid] has an IC50 of under 1000 nM.
For `CC(C)(O)c1ncc(-c2cc3c(N[C@@H](c4cc(C#N)ccc4F)C(F)F)c(Cl)cnc3cc2F)cn1` [Example 381, (S)-3-(1-((3-chloro-7-fluoro-6-(2-(2-hydroxypropan-2-yl)pyrimidin-5-yl)quinolin-4-yl)amino)-2,2-difluoroethyl)-4-fluorobenzonitrile], the IC50 was under 1000 nM.
With `Cc1nc2cc(F)c(-c3cnc(C(C)(C)O)nc3)cc2c(N[C@H](C)c2cc(CCC(=O)O)ccc2F)c1Cl` [Example 446, (R)-3-(3-(1-((3-chloro-7-fluoro-6-(2-(2-hydroxypropan-2-yl)pyrimidin-5-yl)-2-methylquinolin-4-yl)amino)ethyl)-4-fluorophenyl)propanoic acid] the IC50 was 1000 to 10000 nM.
`Cc1ccc(C)c(Nc2c(Cl)c(CO)nc3ccc(-c4cnc(C(C)(C)O)nc4)cc23)c1` [Example 44, 2-(5-(3-chloro-4-((2,5-dimethylphenyl)amino)-2-(hydroxymethyl)quinolin-6-yl)pyrimidin-2-yl)propan-2-ol] showed an IC50 of under 1000 nM.
Work on `Cc1nc2ccc(-c3ccc(C(C)(C)O)cc3)cc2c(N[C@H](C)c2cc(C(N)=O)ccc2F)c1Cl` [Example 312, (R)-3-(1-((3-chloro-6-(4-(2-hydroxypropan-2-yl)phenyl)-2-methylquinolin-4-yl)amino)ethyl)-4-fluorobenzamide] yielded an IC50 of under 1000 nM.
In the case of `CCCC(C)C(N)c1c(Cl)c(C)nc2ccc(-c3cnc(C(C)(C)O)nc3)cc12` (single isomer, unassigned) [Example 358, 2-(5-(4-(1-amino-2-methylpentyl)-3-chloro-2-methylquinolin-6-yl)pyrimidin-2-yl)propan-2-ol], the IC50 is reported as 10000 to 25000 nM.
`C[C@@H](Nc1c(Cl)cnc2ccc(-c3cnc(C(C)(C)O)nc3)cc12)c1cc(Br)ccc1F` [Example 318, (R)-2-(5-(4-((1-(5-bromo-2-fluorophenyl)ethyl)amino)-3-chloroquinolin-6-yl)pyrimidin-2-yl)propan-2-ol] was tested, and the IC50 was under 1000 nM.
For `Cc1nc2cc(F)c(-c3cnc(C(C)(C)O)nc3)nc2c(N[C@H](C)c2cc(C(N)=O)ccc2F)c1Cl` [Example 584, (R)-3-(1-((3-chloro-7-fluoro-6-(2-(2-hydroxypropan-2-yl)pyrimidin-5-yl)-2-methyl-1,5-naphthyridin-4-yl)amino)ethyl)-4-fluorobenzamide], the IC50 was under 1000 nM.
Work on `Cc1nc2c(F)cc(-c3cnc(C(C)(C)O)nc3)cc2c(NC(C)c2ccccc2F)c1Cl` (racemic) [Example 298, 2-(5-(3-chloro-8-fluoro-4-((1-(2-fluorophenyl)ethyl)amino)-2-methylquinolin-6-yl)pyrimidin-2-yl)propan-2-ol] yielded an IC50 of under 1000 nM.
